Reference: patent US20260374766A1, “METHODS FOR TREATING CANCER” (Antares Therapeutics, Inc., priority 2022, published 2026)
Like-named read-outs stand apart in the source and are kept apart here.

Experiments:
[1] = target: T1, p53 Y220C mutant protein (amino acid residues 94-293) (Homo sapiens, UniProt P04637, Y220C); experiment: Thermal Shift Assay (TSA), dTM; type: binding; conditions: for ΔTm at 10 µM: 10 uM compound; for ΔTm at 100 µM: 100 uM compound
T1 construct: p53 Y220C mutant protein (amino acid residues 94-293)
Summary of the method: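 5 μM protein + 10 μM or 100 μM cpd, 3 h, 20 °C; 20 mM HEPES pH7.4, 100 mM NaCl, 0.01% Pluronic F-127, 1% DMSO, Sypro Orange 400-fold dil. Ramp 30→50 °C, 0.03 °C/s. TM by Boltzmann two-state fit.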

NUGC3 p53 Y220C = experiment: Cell Proliferation Assay (CellTiter-Glo, CTG), NUGC3 p53 Y220C; type: cell-based; conditions: Homo sapiens, NUGC-3, 120 h, CellTiter-Glo, 5 days
Summary of the method: (§1)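 NClH1299 lines stably transduced with Tet-inducible p53 Y220C or R273H, plus NUGC3, were treated with compound for 5 days at 250-500 cells/well. IC50 derived from CellTiter-Glo luminescent signal after 10 min room-temperature incubation.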

p53 Y220C = p53 Y220C (Homo sapiens, UniProt P04637, Y220C); experiment: Luciferase Reporter Assay (Luc), p53 response element, NClH1299 cells with inducible p53 Y220C; type: cell-based; conditions: luciferase reporter, NClH1299 inducible p53 Y220C, 6 hour; for AC50: read-out: Luc P53 Y220C AC50
Summary of the method: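 Steps: seed 5,000 cells/well; induce mutant p53 with 0.5 ug/mL doxycycline for 24 h; treat with compound 6 h; add equal volume One-Glo, shake 5 min at room temperature; measure luciferase immediately.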

H1299 p53 R273H = experiment: Cell Proliferation Assay (CellTiter-Glo, CTG), H1299 p53 R273H (NClH1299-inducible p53 R273H); type: cell-based; conditions: Homo sapiens, NCI-H1299, 120 h, CellTiter-Glo, 5 days
Summary of the method: as §1

H1299 p53 Y220C = experiment: Cell Proliferation Assay (CellTiter-Glo, CTG), H1299 p53 Y220C (NClH1299-inducible p53 Y220C); type: cell-based; conditions: Homo sapiens, NCI-H1299, 120 h, CellTiter-Glo, 5 days
Summary of the method: as §1

[2] = target: T1, p53 Y220C mutant protein (amino acid residues 94-293); experiment: Surface Plasmon Resonance (SPR) assay, Kd_kinetic; type: binding; conditions: SPR, p53 Y220C, read-out: SPR P53 Y220C KD kinetic
Summary of the method: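 Temperature held at 16 or 20 °C during Biacore 8K runs. Buffer: 50 mM Tris, pH 7.5, 100 mM NaCl, 1 mM DTT, 0.01% Brij35, 0.05% Tween-20, 1% DMSO.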

[3] = thermal shift, read-out: TSA P53 Y220C dTM (10 uM)
[4] = thermal shift, read-out: TSA P53 Y220C dTM (100 uM)
[5] = 10 uM tool compound as positive control
[6] = p53 Y220C, read-out: TSA P53 Y220C dTM
[7] = NClH1299-inducible p53 R273H cells
[8] = NClH1299-inducible p53 Y220C cells

Row | SMILES | ΔTm at 10 µM [1, 3] | ΔTm at 100 µM [1, 4] | IC50 (NUGC3 p53 Y220C; NUGC3 p53 Y220C) | Emax (p53 Y220C; [5]) | AC50 (p53 Y220C) | IC50 (H1299 p53 R273H; H1299 p53 R273H) | IC50 (H1299 p53 Y220C; H1299 p53 Y220C) | Kd ([2]; kinetic KD) | ΔTm at 10 µM [1, 6] | IC50 (NUGC3 p53 Y220C; NUGC3 cells) | AC50 (p53 Y220C; AC50) | Emax (p53 Y220C; Emax) | IC50 (H1299 p53 R273H; [7]) | IC50 (H1299 p53 Y220C; [8]) | Kd [2] | ΔTm at 100 µM [1, 6]
1 | CNC(=O)c1ccc(NCC#Cc2nc3c(N[C@@H]4CCc5nncn5C4)cccn3c2SC(F)(F)F)c(OC)c1 [Example 192] | ≥ 10 °C | ≥ 10 °C | > 3000 nM | < 70% | > 3000 nM | ≥ 10000 nM | > 3000 nM | < 10 nM | – | – | – | – | – | – | – | –
2 | C[C@@H](O)C#Cc1nc2c(N[C@@H]3CCN(C)C[C@@H]3F)cccn2c1CC(F)(F)F [Example 70, (2R)-4-(8-{[(3S,4R)-3-fluoro-1-methylpiperidin-4-yl]amino}-3-(2,2,2-trifluoroethyl)imidazo[1,2-a]pyridin-2-yl)but-3-yn-2-ol] | – | 5 to 10 °C | > 3000 nM | < 70% | > 3000 nM | ≥ 10000 nM | > 3000 nM | 10 to 100 nM | – | – | – | – | – | – | – | –
3 | CNC(=O)c1ccc(NCC#Cc2nn3c(N[C@@H]4CCN(C)C[C@@H]4F)cccc3c2CC(F)(F)F)c(OC)c1 [Example 118] | – | 5 to 10 °C | 1500 to 3000 nM | 70 to 80% | 1500 to 3000 nM | ≥ 10000 nM | 1500 to 3000 nM | 10 to 100 nM | – | – | – | – | – | – | – | –
4 | CNC(=O)c1cnc(NCC#Cc2nc3c(N[C@@H]4CCN(C)C[C@@H]4F)cccn3c2SC(F)(F)F)n1C [Example 161] | 5 to 10 °C | ≥ 10 °C | 1500 to 3000 nM | < 70% | > 3000 nM | ≥ 10000 nM | 1500 to 3000 nM | 10 to 100 nM | – | – | – | – | – | – | – | –
5 | CNC(=O)c1ccc(OC)c(NCC#Cc2cc3c(N[C@@H]4CCN(C5COC5)C[C@@H]4F)nccn3c2SC(F)(F)F)c1 [Example 351] | – | – | – | – | – | – | – | – | ≥ 10 °C | < 750 nM | < 750 nM | > 90% | ≥ 10000 nM | < 750 nM | < 10 nM | –
6 | CNC(=O)c1cnc(OC)c(NCC#Cc2nn3c(N[C@@H]4CCN(C)C[C@@H]4F)cccc3c2SC(F)F)c1 [Example 268] | – | – | – | – | – | – | – | – | ≥ 10 °C | < 750 nM | < 750 nM | > 90% | < 5000 nM | < 750 nM | < 10 nM | ≥ 10 °C
7 | CNC(=O)c1ccc(NCC#Cc2nc3c(NC4CC5(C4)CN(CC(F)F)C5)cccn3c2SC(F)(F)F)c(OC)c1 [Example 173] | 5 to 10 °C | 5 to 10 °C | 1500 to 3000 nM | 70 to 80% | 750 to 1500 nM | 5000 to 8000 nM | 750 to 1500 nM | 10 to 100 nM | – | – | – | – | – | – | – | –
8 | COC[C@H](O)CN1CCC(Nc2cccn3c(CC(F)(F)F)c(C#CCNc4ccc(S(C)(=O)=O)cc4OC)nc23)CC1 [Example 14, (2R)-1-{4-[(2-{3-[(4-methanesulfonyl-2-methoxyphenyl)amino]prop-1-yn-1-yl}-3-(2,2,2-trifluoroethyl)imidazo[1,2-a]pyridin-8-yl)amino]piperidin-1-yl}-3-methoxypropan-2-ol] | – | ≥ 10 °C | 750 to 1500 nM | 70 to 80% | 1500 to 3000 nM | 5000 to 8000 nM | 750 to 1500 nM | 10 to 100 nM | – | – | – | – | – | – | – | –
9 | CNC(=O)c1ccc(NCC#Cc2nc3c(N[C@@H]4CCN(C)CC4(F)F)cccn3c2CC(F)(F)F)c(OC)c1 (single isomer, unassigned) [Example 37] | – | 5 to 10 °C | > 3000 nM | < 70% | > 3000 nM | ≥ 10000 nM | > 3000 nM | > 1000 nM | – | – | – | – | – | – | – | –
10 | CNC(=O)c1ccc(NCC#Cc2nc3c(N[C@@H]4CCN(C)C[C@@H]4F)cccn3c2SC(F)F)c(OC)c1 [Example 106, 4-[(3-{3-[(difluoromethyl)sulfanyl]-8-{[(3S,4R)-3-fluoro-1-methylpiperidin-4-yl]amino}imidazo[1,2-a]pyridin-2-yl}prop-2-yn-1-yl)amino]-3-methoxy-N-methylbenzamide] | 5 to 10 °C | ≥ 10 °C | < 750 nM | 70 to 80% | < 750 nM | ≥ 10000 nM | < 750 nM | < 10 nM | – | – | – | – | – | – | – | –
11 | CCNC(=O)c1ccc(OC)c(NCC#Cc2nn3c(N[C@@H]4CCN(C)C[C@@H]4F)cccc3c2SC(F)(F)F)c1 [Example 285] | – | – | – | – | – | – | – | – | ≥ 10 °C | < 750 nM | < 750 nM | 80 to 90% | 5000 to 8000 nM | < 750 nM | < 10 nM | ≥ 10 °C
12 | COc1cc(P(C)(C)=O)ccc1NCC#Cc1cc2c(N[C@@H]3CCN(C)C[C@@H]3F)cccn2c1SC(F)(F)F [Example 346] | – | – | – | – | – | – | – | – | ≥ 10 °C | < 750 nM | < 750 nM | > 90% | 8000 to 10000 nM | < 750 nM | < 10 nM | –
13 | CNC(=O)c1ccc(OC)c(NCC#Cc2nc3c(N[C@@H]4C[C@H]5CC[C@@H]([C@@H]4F)N5C)cccn3c2SC(F)(F)F)c1 [Example 199] | ≥ 10 °C | ≥ 10 °C | < 750 nM | 70 to 80% | < 750 nM | < 5000 nM | < 750 nM | < 10 nM | – | – | – | – | – | – | – | –
14 | CNC(=O)c1ccc(OC)c(NCC#Cc2nc3c(N[C@@H]4CCN(C)C[C@@H]4F)cccn3c2SC(F)(F)F)c1 [Example 107, 3-{[3-(8-{[(3S,4R)-3-fluoro-1-methylpiperidin-4-yl]amino}-3-[(trifluoromethyl)sulfanyl]imidazo[1,2-a]pyridin-2-yl)prop-2-yn-1-yl]amino}-4-methoxy-N-methylbenzamide] | ≥ 10 °C | ≥ 10 °C | < 750 nM | 80 to 90% | < 750 nM | < 5000 nM | < 750 nM | < 10 nM | – | – | – | – | – | – | – | –
15 | CNC(=O)c1ccc(NCC#Cc2nc3c(N[C@@H]4CNC[C@@H]4F)cccn3c2SC(F)(F)F)c(OC)c1 [Example 102, 4-{[3-(8-{[(3R,4S)-4-fluoropyrrolidin-3-yl]amino}-3-[(trifluoromethyl)sulfanyl]imidazo[1,2-a]pyridin-2-yl)prop-2-yn-1-yl]amino}-3-methoxy-N-methylbenzamide] | ≥ 10 °C | ≥ 10 °C | < 750 nM | 70 to 80% | < 750 nM | ≥ 10000 nM | < 750 nM | < 10 nM | – | – | – | – | – | – | – | –
16 | CNC(=O)c1cc(NCC#Cc2nc3c(N[C@@H]4CCN(C)C[C@@H]4F)cccn3c2SC(F)(F)F)c(OC)cn1 [Example 148] | ≥ 10 °C | ≥ 10 °C | < 750 nM | 70 to 80% | < 750 nM | ≥ 10000 nM | < 750 nM | < 10 nM | – | – | – | – | – | – | – | –
17 | COC[C@@H](O)CN1CCC(Nc2cccn3c(CC(F)(F)F)c(C#CCNc4ccc(S(C)(=O)=O)cc4OC)nc23)CC1 [Example 12, (2S)-1-{4-[(2-{3-[(4-methanesulfonyl-2-methoxyphenyl)amino]prop-1-yn-1-yl}-3-(2,2,2-trifluoroethyl)imidazo[1,2-a]pyridin-8-yl)amino]piperidin-1-yl}-3-methoxypropan-2-ol] | – | ≥ 10 °C | 750 to 1500 nM | 70 to 80% | 1500 to 3000 nM | ≥ 10000 nM | 1500 to 3000 nM | 10 to 100 nM | – | – | – | – | – | – | – | –
18 | CNC(=O)c1ccc(NCC#Cc2nc3c(N[C@@H]4CCNC[C@@H]4F)nccn3c2SC(F)(F)F)c(OC)c1 [Example 319] | – | – | – | – | – | – | – | – | ≥ 10 °C | < 750 nM | < 750 nM | > 90% | ≥ 10000 nM | < 750 nM | < 10 nM | –
19 | COc1ccc(C(N)=O)nc1NCC#Cc1nc2c(N[C@@H]3CCN(C)C[C@@H]3F)cccn2c1SC(F)(F)F [Example 166] | ≥ 10 °C | ≥ 10 °C | < 750 nM | 80 to 90% | < 750 nM | ≥ 10000 nM | < 750 nM | < 10 nM | – | – | – | – | – | – | – | –
